According to PubChem BioAssay AID1963841 (Molecular Pharmacology Branch, DTP, NCI, 2024):
Several values for one entry are separate records, joined by “and”; a condition that tells them apart may be missing. Identical values can stand only once.

Test system: 439559-082-T-J2-PDC spheroid viability
Experiment: Anticancer human tumor 439559-082-T-J2-PDC patient-derived colon adenocarcinoma cell line growth inhibition [POLQ]
Details: spheroids with HUVEC and MSC; for viability, T/C: stronger effect = lower value
Description: Multicellular complex tumor spheroid response to Polymerase (POL) inhibitors (novobiocin, ART-558, RP6685) in combination with a variety of drugs and investigational agents in selected tumor cell lines
The POL inhibitors (novobiocin, ART-558, and RP6685) were evaluated both individually and in combination with standard of care and investigational anticancer small molecules within a complex spheroid model of solid tumors. . Complex spheroids include a stromal component modeled by human endothelial cells (HUVEC) and fibroblasts modeled by human mesenchymal stem cells (MSCs). The concentration ranges selected for each drug and investigational agent were based upon clinically achievable concentrations if the clinical Cmax of the agent was known.
Compounds. The drugs and investigational agents: novobiocin (NSC847541), ART-558 (NSC835418), RP-6685 (NSC848927), peposertib (NSC802822), ceralasertib (NSC780249), elimusertib (NSC800525), camonsertib (NSC841442), AZD-1390 (NSC803789), olaparib (NSC753686), talazoparib (NSC767125), rucaparib (NSC756644), sotorasib (NSC818433), MRTX-1133 (NSC836407), SN-38 (NSC673596), topotecan (NSC609699), epotoside (NSC141540), doxorubicin (NSC123127), gemcitabine (NSC613327), 5-fluorouracil (NSC19893), paclitaxel (NSC125973), vemurafenib (NSC761431), MSA-2 (NSC828583), SN-011 (NSC837082), adavosertib (NSC754352), prexasertib (NSC758257), carboplatin (NSC241240) and oxaliplatin (NSC266046), were obtained from the National Cancer Institute (NCI) Developmental Therapeutics Program Chemical Repository (21). The FDA-approved anticancer drug set is available from the Developmental Therapeutics Program at https://dtp.cancer.gov/organization/dscb/obtaining/. […] The stock solutions were prepared in dimethyl sulfoxide (DMSO, Sigma-Aldrich, St. Louis, MO, cat. D2650), except for the platinum compounds which were prepared in saline (Quality Biological, Gaithersburg, MD, cat. 114-055-101), at 800-fold the tested concentration and stored at -70 degrees C prior to their use. All drugs and investigational agents were tested over a range starting from a high concentration at or near the clinical Cmax and decreasing in half-log increments. If the clinical Cmax for an agent had not been determined, the highest concentration tested was 10 microM, except for SN-38, which was tested at a high concentration of 1 microM.
Cell Culture. All cells were maintained in an incubator at 37 degrees C and 5% CO2 with 95% humidity. The PDC lines were cultured according to standard operating procedures established by the NCI PDMR (https://pdmr.cancer.gov). Table 3 of the manuscript, lists the cell lines along with the number of the three cell types plated to form the mct-spheroids and media for tumor cell growth. After thawing, all PDC lines, except 997537-175-T-J1-PDC and 415267-285-R-J2-PDC, were cultured in Matrigel-coated flasks prepared with a working solution of 1X Ham's F-12 nutrient mix, without supplementation (Thermo Fisher Scientific, cat. 11765054), 100 U/mL penicillin-streptomycin (Thermo Fisher Scientific, cat. 15140122), and 2.5% Matrigel (Corning Inc., Corning, NY, cat. 354248) for the first three passages. The two PDC lines 997537-175-T-J1-PDC and 415267-285-R-J2-PDC were cultured on uncoated flasks. The 857933-349-R-J2-PDC line was cultured in 6C/Colon 1B media containing advanced DMEM/F-12 (Thermo Fisher Scientific, cat. 12634028), 10 mM HEPES (Thermo Fisher Scientific, cat. 15630080), 1X GlutaMAX supplement (Thermo Fisher Scientific, cat. 35050061), 0.1 mg/mL primocin (InvivoGen, San Diego, CA, cat. ant-pm-2), 10% defined fetal bovine serum, heat inactivated (HyClone Laboratories Inc., Logan, UT, cat. SH30070.03HI), 50% L-WRN conditioned media (ATCC, cat. CRL-3276), 1.25 mM N-Acetyl-L-cysteine (Sigma-Aldrich, cat. A9165), 10 mM nicotinamide (Sigma-Aldrich, cat. N0636), 1X B-27 supplement (Thermo Fisher Scientific, cat. 17504044), 1X N-2 supplement (Thermo Fisher Scientific, cat. […]
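Also: spheroids exposed to compounds for seven days before readout.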
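For viability, T/C in this document: 100% = DMSO vehicle control viability.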

O=C(Nc1ccc(O)c(NS(=O)(=O)c2ccc(F)cc2)c1)c1ccc(-c2ccccc2)cc1
viability, T/C (compound 0.0316 µM): 91% and 95.6% and 94.9% | viability, T/C (compound 0.1 µM): 95.3% and 90.8% and 94.3% | viability, T/C (compound 0.316 µM): 87.2% and 100% and 98.6% | viability, T/C (compound 1 µM): 97.2% and 96.6% and 96.2% | viability, T/C (compound 3.16 µM): 112% and 107% and 106% | viability, T/C (compound 10 µM): 105% and 102% and 101% | IC50 (curve of compound): > 10000 nM

CC[C@@]1(O)C(=O)OCc2c1cc1n(c2=O)Cc2cc3c(CN(C)C)c(O)ccc3nc2-1 + Cc1cccc(N(C)C(=O)C2C(O)CCN2c2nc(C)cc(C(F)(F)F)c2C#N)c1
IC50 (curve of first compound, second compound 0.0316 µM): > 100 nM | IC50 (curve of first compound, second compound 0.1 µM): > 100 nM | IC50 (curve of first compound, second compound 0.316 µM): > 100 nM | IC50 (curve of first compound, second compound 1 µM): > 100 nM | IC50 (curve of first compound, second compound 3.16 µM): > 100 nM | IC50 (curve of first compound, second compound 10 µM): > 100 nM | viability, T/C (second compound 0.0316 µM, first compound 0.000316 µM): 94.1% | viability, T/C (second compound 0.0316 µM, first compound 0.001 µM): 101% | viability, T/C (second compound 0.0316 µM, first compound 0.00316 µM): 96% | viability, T/C (second compound 0.0316 µM, first compound 0.01 µM): 97.2% | viability, T/C (second compound 0.0316 µM, first compound 0.0316 µM): 92.2% | viability, T/C (second compound 0.0316 µM, first compound 0.1 µM): 85% | viability, T/C (second compound 0.1 µM, first compound 0.000316 µM): 113% | viability, T/C (second compound 0.1 µM, first compound 0.001 µM): 105% | viability, T/C (second compound 0.1 µM, first compound 0.00316 µM): 93.7% | viability, T/C (second compound 0.1 µM, first compound 0.01 µM): 103% | viability, T/C (second compound 0.1 µM, first compound 0.0316 µM): 97.3% | viability, T/C (second compound 0.1 µM, first compound 0.1 µM): 79.1% | viability, T/C (second compound 0.316 µM, first compound 0.000316 µM): 98.1% | viability, T/C (second compound 0.316 µM, first compound 0.001 µM): 112% | viability, T/C (second compound 0.316 µM, first compound 0.00316 µM): 94.9% | viability, T/C (second compound 0.316 µM, first compound 0.01 µM): 89.8% | viability, T/C (second compound 0.316 µM, first compound 0.0316 µM): 84.9% | viability, T/C (second compound 0.316 µM, first compound 0.1 µM): 83.4% | viability, T/C (second compound 1 µM, first compound 0.000316 µM): 104% | viability, T/C (second compound 1 µM, first compound 0.001 µM): 96.5% | viability, T/C (second compound 1 µM, first compound 0.00316 µM): 93.1% | viability, T/C (second compound 1 µM, first compound 0.01 µM): 93% | viability, T/C (second compound 1 µM, first compound 0.0316 µM): 90.3% | viability, T/C (second compound 1 µM, first compound 0.1 µM): 80.9% | viability, T/C (second compound 3.16 µM, first compound 0.000316 µM): 96.2% | viability, T/C (second compound 3.16 µM, first compound 0.001 µM): 101% | viability, T/C (second compound 3.16 µM, first compound 0.00316 µM): 98.9% | viability, T/C (second compound 3.16 µM, first compound 0.01 µM): 93.5% | viability, T/C (second compound 3.16 µM, first compound 0.0316 µM): 89.9% | viability, T/C (second compound 3.16 µM, first compound 0.1 µM): 76.5% | viability, T/C (second compound 10 µM, first compound 0.000316 µM): 93.2% | viability, T/C (second compound 10 µM, first compound 0.001 µM): 89.4% | viability, T/C (second compound 10 µM, first compound 0.00316 µM): 92.8% | viability, T/C (second compound 10 µM, first compound 0.01 µM): 91.6% | viability, T/C (second compound 10 µM, first compound 0.0316 µM): 90.3% | viability, T/C (second compound 10 µM, first compound 0.1 µM): 75%
